This passage reports T/C results from PubChem BioAssay AID330 (DTP/NCI, 2004).

Several values for one entry are separate records, joined by “and”; a condition that tells them apart may be missing. Equal values may be shown once. Toxic doses and inconclusive results are not listed.

This test relates to P388 leukemia ip, CD2F1 mice, survival T/C. The experiment in a line: NCI In Vivo Anticancer Drug Screen. Data for tumor model P388 Leukemia (intraperitoneal) in CD2F1 (CDF1) mice. Conditions: endpoint: median survival time, higher = longer survival. The gist of the method:
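Mice carrying the transplanted tumor received test compound or vehicle. Survival was recorded in each group, and the value is the treated-group measurement divided by that of the vehicle-treated control group.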

The mark [1] stands for this setting: dose: 50.0 mg/kg/injection, schedule: Q01DX005 (ip), vehicle: saline with Tween-80.
[2] abbreviates: dose: 100.0 mg/kg/injection, schedule: Q01DX005 (ip), vehicle: saline with Tween-80.
[3] abbreviates: dose: 200.0 mg/kg/injection, schedule: Q01DX005 (ip), vehicle: saline with Tween-80.
The mark [4] stands for this setting: dose: 12.5 mg/kg/injection, schedule: Q01DX009 (ip), vehicle: saline with Tween-80.
Setting [5] is: dose: 25.0 mg/kg/injection, schedule: Q01DX009 (ip), vehicle: saline with Tween-80.
The mark [6] stands for this setting: dose: 50.0 mg/kg/injection, schedule: Q01DX009 (ip), vehicle: saline with Tween-80.
The mark [7] stands for this setting: dose: 25.0 mg/kg/injection, schedule: Q04DX003 (ip), vehicle: saline with Tween-80.
Setting [8] is: dose: 50.0 mg/kg/injection, schedule: Q04DX003 (ip), vehicle: saline with Tween-80.
[9] abbreviates: dose: 100.0 mg/kg/injection, schedule: Q04DX003 (ip), vehicle: saline with Tween-80.
Where [10] appears, read: dose: 50.0 mg/kg/injection, schedule: Q01DX009 (ip), vehicle: Klucel (hydroxypropylcellulose) (HPC).
Where [11] appears, read: dose: 100.0 mg/kg/injection, schedule: Q01DX009 (ip), vehicle: Klucel (hydroxypropylcellulose) (HPC).
[12] abbreviates: dose: 200.0 mg/kg/injection, schedule: Q01DX009 (ip), vehicle: Klucel (hydroxypropylcellulose) (HPC).
[13] abbreviates: dose: 100.0 mg/kg/injection, schedule: Q01DX009 (ip), vehicle: saline with Tween-80.
[14] abbreviates: dose: 200.0 mg/kg/injection, schedule: Q01DX009 (ip), vehicle: saline with Tween-80.
Where [15] appears, read: dose: 400.0 mg/kg/injection, schedule: Q01DX009 (ip), vehicle: saline with Tween-80.
Where [16] appears, read: dose: 50.0 mg/kg/injection, schedule: Q01DX009 (ip), vehicle: saline.
Where [17] appears, read: dose: 100.0 mg/kg/injection, schedule: Q01DX009 (ip), vehicle: saline.
Setting [18] is: dose: 200.0 mg/kg/injection, schedule: Q01DX009 (ip), vehicle: saline.

On to `CN1CCC(CNC(=O)CCCCCCCCC(=O)NCC2(c3ccccc3)CCN(C)CC2)(c2ccccc2)CC1`, for which the T/C is 100 % of control (dose: 0.39 mg/kg/injection, schedule: Q01DX009 (ip), vehicle: saline); 96 % of control (dose: 0.78 mg/kg/injection, schedule: Q01DX009 (ip), vehicle: saline); 105 % of control (dose: 1.56 mg/kg/injection, schedule: Q01DX009 (ip), vehicle: saline); 111 % of control (dose: 3.12 mg/kg/injection, schedule: Q01DX009 (ip), vehicle: saline).
As to `COc1ccc(C(OCC2CC3CCC2C3)OCC2CC3CCC2C3)cc1` (centres undefined), the T/C reads like this: (dose: 12.5 mg/kg/injection, schedule: Q01DX009 (ip), vehicle: other) 114 % of control; (dose: 25.0 mg/kg/injection, schedule: Q01DX009 (ip), vehicle: other) 111 % of control; (dose: 50.0 mg/kg/injection, schedule: Q01DX009 (ip), vehicle: other) 110 % of control; (dose: 100.0 mg/kg/injection, schedule: Q01DX009 (ip), vehicle: other) 111 % of control; (dose: 200.0 mg/kg/injection, schedule: Q01DX009 (ip), vehicle: other) 111 % of control.
Take `CCOC(=O)c1c(-c2ccccc2)nn(CC(N)=O)c1CO`: the T/C is, setting by setting: under setting [1], 100 % of control; under setting [2], 105 % of control; under setting [3], 103 % of control.
For the compound `Cc1ccc(-n2c(=S)n(-c3ccccc3C)c3nc4ccccc4nc2/c3=N\Nc2ccc(Cl)cc2)cc1`, the T/C was 92 % of control under setting [1], 88 % of control under setting [2] and 95 % of control under setting [3].
For `COc1cc2c(cc1OC)C13CCN4CC5=CCOC6CC(=O)N2C1C6C5CC43` (centres undefined), the T/C is 102 % of control (dose: 7.5 mg/kg/injection, schedule: Q01DX005 (ip), vehicle: saline with Tween-80); 100 % of control under setting [4]; 97 % of control (dose: 15.0 mg/kg/injection, schedule: Q01DX005 (ip), vehicle: saline with Tween-80); 100 % of control under setting [5]; 100 % of control (dose: 25.0 mg/kg/injection, schedule: Q04DX003 (ip), vehicle: saline sonified); 100 % of control (dose: 30.0 mg/kg/injection, schedule: Q01DX005 (ip), vehicle: saline with Tween-80). The T/C was 100 % of control under setting [6]; 95 % of control (dose: 50.0 mg/kg/injection, schedule: Q04DX003 (ip), vehicle: saline sonified); 93 % of control (dose: 60.0 mg/kg/injection, schedule: Q01DX005 (ip), vehicle: saline with Tween-80).
Regarding `Clc1nc2cc3c(cc2n2cccc12)oc1ccccc13`, the T/C reads like this: (dose: 25.0 mg/kg/injection, schedule: Q01DX005 (ip), vehicle: saline with Tween-80) 108 % of control; under setting [1], 110 % of control; under setting [2], 110 % of control; under setting [3], 110 % of control.
Consider `NC(=O)Nc1ccc(/C=C\c2ccnc3ccccc23)cc1`, for which the T/C runs as follows: under setting [7], 96 % of control; under setting [8], 93 % of control; under setting [9], 89 % of control.
In the case of `N#CC1C(=O)NC(=O)C(C#N)C1C(Cl)(Cl)Cl` (centres undefined), the T/C is 100 % of control under setting [10], 93 % of control under setting [11] and 102 % of control under setting [12].
Take `O=S(=O)(F)c1ccc2nc(-c3cccc(Sc4ccccc4)c3)cc(Cl)c2c1`: the T/C under setting [13] was 100 % of control, the T/C under setting [14] is 95 % of control and the T/C under setting [15] is 95 % of control.
Take `CCN(C)N=Nc1ccc(C(N)=O)cc1`: the T/C by setting is: (dose: 25.0 mg/kg/injection, schedule: Q01DX005 (ip), vehicle: Klucel (hydroxypropylcellulose) (HPC)) 101 % of control and 105 % of control; (dose: 50.0 mg/kg/injection, schedule: Q01DX005 (ip), vehicle: Klucel (hydroxypropylcellulose) (HPC)) 95 % of control; (dose: 200.0 mg/kg/injection, schedule: Q01DX005 (ip), vehicle: Klucel (hydroxypropylcellulose) (HPC)) 89 % of control.
Regarding `N#Cc1c2c(c(O)[nH]c1=O)C(=O)c1ccccc1-2`, the T/C is 115 % of control under setting [4], 104 % of control under setting [5] and 93 % of control under setting [6].
Turning to `O=C(Nc1ccc(Cl)c(Cl)c1)NC1CC1`, the T/C under setting [6] is 119 % of control, the T/C under setting [13] was 102 % of control and the T/C under setting [14] is 93 % of control.
Consider `C=CCNC(=S)N/N=C(/C=C/c1ccc(OC)cc1)CCN(C)C`, for which the T/C was 87 % of control (dose: 100.0 mg/kg/injection, schedule: Q01DX001 (ip), vehicle: saline with Tween-80); 89 % of control (dose: 200.0 mg/kg/injection, schedule: Q01DX001 (ip), vehicle: saline with Tween-80); 90 % of control (dose: 400.0 mg/kg/injection, schedule: Q01DX001 (ip), vehicle: saline with Tween-80).
For the compound `CC1=NC(=O)C(N=O)C(=O)N1` (centres undefined), the T/C was 99 % of control (dose: 100.0 mg/kg/injection, schedule: Q04DX002 (ip), vehicle: saline with Tween-80) and 97 % of control (dose: 200.0 mg/kg/injection, schedule: Q04DX002 (ip), vehicle: saline with Tween-80).
With `O=C1C=C(c2ccccc2)Sc2ccccc2N1`, the T/C is, setting by setting: under setting [10], 95 % of control; under setting [11], 88 % of control; under setting [12], 87 % of control; (dose: 400.0 mg/kg/injection, schedule: Q01DX009 (ip), vehicle: Klucel (hydroxypropylcellulose) (HPC)) 94 % of control.
Take `CCC(=O)OCC(=O)[C@]1(O)Cc2c(O)c3c(c(O)c2[C@@H](OC2CC(N)C(O)C(C)O2)C1)C(=O)c1c(OC)cccc1C3=O` (some centres undefined): the T/C is 163 % of control (dose: 0.25 mg/kg/injection, schedule: Q01DX009 (ip), vehicle: saline); 172 % of control (dose: 0.5 mg/kg/injection, schedule: Q01DX009 (ip), vehicle: saline sonified); 174 % of control (dose: 0.5 mg/kg/injection, schedule: Q01DX009 (ip), vehicle: saline); 168 % of control (dose: 1.0 mg/kg/injection, schedule: Q01DX009 (ip), vehicle: saline sonified); 225 % of control (dose: 1.0 mg/kg/injection, schedule: Q01DX009 (ip), vehicle: saline); 172 % of control (dose: 2.0 mg/kg/injection, schedule: Q01DX009 (ip), vehicle: saline sonified). Also, the T/C reads like this: (dose: 2.0 mg/kg/injection, schedule: Q01DX009 (ip), vehicle: saline) 252 % of control; (dose: 8.0 mg/kg/injection, schedule: Q01DX009 (ip), vehicle: saline) 114 % of control.
As for `CC1OC(OC2C(OC3C(OC4CCC5(C)C(CCC6(C)C5CC=C5C7CC(C)(C)CCC7(C(=O)O)CCC56C)C4(C)C)OCC(O)C3O)OC(CO)C(O)C2O)C(O)C(O)C1O` (centres undefined), the T/C by setting is: (dose: 3.75 mg/kg/injection, schedule: Q01DX005 (ip), vehicle: distilled water + Tween-80) 98 % of control; (dose: 7.5 mg/kg/injection, schedule: Q01DX005 (ip), vehicle: distilled water + Tween-80) 100 % of control.
Consider `COc1c(C)n(C2OC(CO)C(O)C2O)ccc1=O` (centres undefined), for which the T/C was 104 % of control under setting [16]; 100 % of control under setting [17]; 103 % of control under setting [18]; 98 % of control (dose: 400.0 mg/kg/injection, schedule: Q01DX009 (ip), vehicle: saline).
For `O=S(=O)(O)CCCBr`, the T/C was 100 % of control under setting [13], 104 % of control under setting [14] and 95 % of control under setting [15].
Take `O=C(O)c1cc(Br)c2ccccc2c1O`: the T/C was 100 % of control under setting [7], 100 % of control under setting [8] and 100 % of control under setting [9].
For `COc1ccc(S(=O)(=O)/C(=C/c2ccccc2[N+](=O)[O-])C(=O)c2ccccc2)cc1`, the T/C by setting is: under setting [1], 111 % of control; under setting [2], 103 % of control; under setting [3], 104 % of control.
Consider `O=C(c1ccc(F)cc1)C1CCN(CCCn2c(=O)[nH]c3ccccc32)CC1`, for which the T/C was 100 % of control under setting [16], 101 % of control under setting [17] and 100 % of control under setting [18].
On to `COc1ccc2ccccc2c1CC(C)O` (centres undefined), for which the T/C runs as follows: under setting [1], 101 % of control; under setting [2], 98 % of control; under setting [3], 102 % of control.
